Laboratory results taken from ChEMBL document CHEMBL2176973, “Synthesis and SAR Studies of Fused Oxadiazines as γ-Secretase Modulators for Treatment of Alzheimer's Disease” (ACS Med Chem Lett, 2012).
Active and inactive are the calls of the source. The rule behind the calls is not given here.

How the values were obtained:
[1] = target: T1, Gamma-secretase (Homo sapiens) (UniProt Q96BI3+Q9NZ42+Q8WW43+P49768+Q92542+P49810); test: Modulation of gamma-secretase expressed in HEK293 cells co-expressing APPsw-lon assessed as reduction of total amyloid beta/amyloid-beta-42 ratio by sandwich immunoassay; assay type: cell-based
Gamma-secretase = test: Modulation of gamma-secretase expressed in HEK293 cells co-expressing APPsw-lon assessed as reduction of amyloid-beta-42 level by sandwich immunoassay; assay type: cell-based, Homo sapiens
hERG (KCNH2) = hERG (KCNH2) (Homo sapiens, UniProt Q12809); test: Inhibition of human ERG at 10 uM
Sequence of hERG (KCNH2) (Q12809 whole entry): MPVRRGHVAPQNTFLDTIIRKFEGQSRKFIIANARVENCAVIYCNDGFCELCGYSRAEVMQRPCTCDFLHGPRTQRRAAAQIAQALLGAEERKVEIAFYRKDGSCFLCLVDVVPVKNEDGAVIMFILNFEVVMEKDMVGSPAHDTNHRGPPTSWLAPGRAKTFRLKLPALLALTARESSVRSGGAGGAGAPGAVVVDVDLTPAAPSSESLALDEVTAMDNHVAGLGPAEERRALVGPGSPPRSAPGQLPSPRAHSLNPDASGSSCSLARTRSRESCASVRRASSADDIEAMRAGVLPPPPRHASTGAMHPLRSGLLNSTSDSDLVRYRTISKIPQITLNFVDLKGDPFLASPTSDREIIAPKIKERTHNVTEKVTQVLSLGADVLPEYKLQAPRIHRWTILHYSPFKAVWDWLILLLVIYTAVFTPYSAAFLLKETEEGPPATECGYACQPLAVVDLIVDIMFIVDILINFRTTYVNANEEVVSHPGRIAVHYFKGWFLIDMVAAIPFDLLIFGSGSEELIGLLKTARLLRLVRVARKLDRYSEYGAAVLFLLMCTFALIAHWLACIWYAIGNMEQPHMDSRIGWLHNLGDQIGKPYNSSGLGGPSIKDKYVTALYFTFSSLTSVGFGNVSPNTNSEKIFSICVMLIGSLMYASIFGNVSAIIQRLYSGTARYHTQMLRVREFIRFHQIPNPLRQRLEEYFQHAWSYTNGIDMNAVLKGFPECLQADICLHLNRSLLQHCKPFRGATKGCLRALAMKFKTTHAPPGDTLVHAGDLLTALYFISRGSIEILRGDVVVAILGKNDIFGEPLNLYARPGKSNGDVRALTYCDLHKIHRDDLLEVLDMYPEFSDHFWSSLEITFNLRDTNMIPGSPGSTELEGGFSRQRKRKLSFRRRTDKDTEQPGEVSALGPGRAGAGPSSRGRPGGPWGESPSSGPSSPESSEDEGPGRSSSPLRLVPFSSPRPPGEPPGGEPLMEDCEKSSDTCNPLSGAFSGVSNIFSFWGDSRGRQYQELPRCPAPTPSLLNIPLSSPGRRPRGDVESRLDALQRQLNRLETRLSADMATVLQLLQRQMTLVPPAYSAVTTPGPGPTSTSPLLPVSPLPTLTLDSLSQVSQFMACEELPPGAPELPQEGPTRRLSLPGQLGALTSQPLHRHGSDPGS

[2] = Activity at p-glycoprotein
Rattus norvegicus [3] = species: Rattus norvegicus; test: Toxicity in rat assessed as Notch-related side effects; assay type: organism-based; conditions: in vivo
[4] = Oral bioavailability in rat; assay type: ADME, organism-based; conditions: in vivo
[5] = Half life in rat; assay type: ADME, organism-based; conditions: in vivo
Caco-2 = test: Permeability across human Caco2 cells; assay type: ADME, cell-based
[6] = target: T1, Gamma-secretase (Homo sapiens); test: Modulation of gamma-secretase-mediated Notch processing expressed in HEK293 cells co-expressing human Notch1 protein up to 50 uM; assay type: cell-based
Rattus norvegicus [7] = test: Antialzheimer's activity in rat assessed as reduction of amyloid-beta-42 level in CSF at 10 mg/kg, po after 3 hrs by AlphaLISA amyloid assay; assay type: functional
[8] = Volume of distribution at steady state in rat; assay type: ADME, organism-based; conditions: in vivo, read-out: Vdss
[9] = Plasma concentration in rat at 10 mg/kg, po after 3 hrs; assay type: ADME, organism-based; set-up: dose 10 mg/kg, route oral
[10] = Drug level in rat brain at 10 mg/kg, po after 6 hrs; assay type: ADME, organism-based; set-up: dose 10 mg/kg, route oral; conditions: read-out: Drug uptake
[11] = Ratio of drug level in brain to plasma rat at 10 mg/kg, po after 6 hrs; assay type: ADME, organism-based; set-up: dose 10 mg/kg, route oral; conditions: read-out: BPR
Rattus norvegicus [12] = test: Antialzheimer's activity in po dosed rat assessed as reduction of amyloid-beta-42 level in CSF after 3 hrs by AlphaLISA amyloid assay; assay type: functional, organism-based
Canis familiaris = species: Canis familiaris; test: Cardiotoxicity in dog assessed as effect on QTc intervals; assay type: toxicity, organism-based, Canis lupus familiaris; conditions: in vivo
[13] = AUC (0 to 6 hrs) in rat plasma at 10 mg/kg, po; assay type: ADME, organism-based; set-up: time < 6 hr, dose 10 mg/kg, route oral
Rattus norvegicus [14] = species: Rattus norvegicus; test: Toxicity in rat assessed as biomarker changes; assay type: organism-based; conditions: in vivo
[15] = Clearance in rat; assay type: ADME, organism-based; conditions: in vivo
[16] = Drug level in rat brain at 10 mg/kg, po after 3 hrs; assay type: ADME, organism-based; set-up: dose 10 mg/kg, route oral; conditions: read-out: Drug uptake
[17] = target: T2, Nuclear receptor subfamily 1 group I member 2 (Homo sapiens, UniProt O75469); test: Induction of PXR
T2 sequence (O75469 whole entry): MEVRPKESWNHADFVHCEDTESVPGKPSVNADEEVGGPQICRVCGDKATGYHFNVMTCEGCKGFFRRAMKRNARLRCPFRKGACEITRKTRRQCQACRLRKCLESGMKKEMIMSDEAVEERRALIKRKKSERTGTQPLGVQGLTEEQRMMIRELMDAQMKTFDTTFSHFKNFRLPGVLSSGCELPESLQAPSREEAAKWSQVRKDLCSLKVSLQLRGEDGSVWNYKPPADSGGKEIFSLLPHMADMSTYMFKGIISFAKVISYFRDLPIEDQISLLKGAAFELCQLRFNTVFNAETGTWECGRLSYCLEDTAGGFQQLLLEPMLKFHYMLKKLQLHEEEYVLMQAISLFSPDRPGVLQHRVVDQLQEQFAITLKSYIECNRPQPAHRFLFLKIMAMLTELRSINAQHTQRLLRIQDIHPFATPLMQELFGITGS

[18] = Inhibition of CYP450; assay type: ADME

| SMILES | Ratio [1] | IC50 (Gamma-secretase) [nM] | further results |
| --- | --- | --- | --- |
| COc1cc(/C=C2\CCCN3C2=NOC[C@@H]3CC(=O)N2CCCCC2)ccc1-n1cnc(C)c1 | 13 | 1500 | – |
| COc1cc(/C=C2\CCCN3C2=NOC[C@@H]3CS(C)(=O)=O)ccc1-n1cnc(C)c1 | 1 | 19000 | – |
| COc1cc(/C=C2\O[C@@H](C)CN3C2=NOC[C@@H]3c2cc(F)c(F)c(F)c2)ccc1-n1cnc(C)c1 | 320 | 46 | – |
| COc1cc(/C=C2\CCCN3C2=NOC3(CO)c2ccc(F)cc2)ccc1-n1cnc(C)c1 (stereo not drawn) | 289 | 75 | – |
| COc1cc(/C=C2\CCCN3C(=O)C(c4cc(F)cc(F)c4)ON=C23)ccc1-n1cnc(C)c1 (racemic) | 18 | 1100 | – |
| COc1cc(/C=C2\CCCN3C2=NOC[C@@H]3CN2CCOCC2)ccc1-n1cnc(C)c1 | 5 | 3700 | – |
| COc1cc(/C=C2\CCCN3C2=NOC[C@@H]3C(C)(C)C)ccc1-n1cnc(C)c1 | 162 | 120 | – |
| COc1cc(/C=C2\CCCN3CC(CO[Si](c4ccccc4)(c4ccccc4)C(C)(C)C)ON=C23)ccc1-n1cnc(C)c1 (racemic) | 80 | 56 | – |
| COc1cc(/C=C2\CCCN3C2=NOC[C@@H]3CO)ccc1-n1cnc(C)c1 | 6 | 3300 | – |
| COc1cc(/C=C2\CCCN3C2=NOC[C@@H]3c2ccccc2)ccc1-n1cnc(C)c1 | 210 | 87 | inhibition in vivo at 10 mg/kg (Rattus norvegicus [7]): 39%; concentration at 3 h [9]: 6.2 µM; concentration at 6 h [10]: 539 ng/g; Kp at 6 h [11]: 0.9; AUC(0-t) at 6 h [13]: 17.6 µM·h; concentration at 3 h [16]: 2.8 µM |
| COc1cc(/C=C2\CCCN3C2=NOC[C@@H]3c2cc(F)c(OC)c(F)c2)ccc1-n1cnc(C)c1 | 459 | 44 | inhibition in vivo at 10 mg/kg (Rattus norvegicus [7]): 26%; concentration at 3 h [9]: 6.3 µM; concentration at 6 h [10]: 268 ng/g; Kp at 6 h [11]: 1.1; AUC(0-t) at 6 h [13]: 22.7 µM·h |
| COc1cc(/C=C2\CCCN3C2=NOC[C@@H]3C(C)C)ccc1-n1cnc(C)c1 | 34 | 530 | – |
| COc1cc(/C=C2\CCCN3C2=NO[C@]3(CO)c2ccc(F)cc2)ccc1-n1cnc(C)c1 | 488 | 29 | – |
| COc1cc(/C=C2\CCCN3CC(COCc4ccccc4)ON=C23)ccc1-n1cnc(C)c1 (racemic) | 80 | 250 | – |
| CCc1csc(C[C@H]2CON=C3/C(=C/c4ccc(-n5cnc(C)c5)c(OC)c4)CCCN32)n1 | 3 | 6400 | – |
| COc1cc(/C=C2\CCCN3C2=NOCC3(C)c2ccc(F)cc2)ccc1-n1cnc(C)c1 (racemic) | 69 | 230 | – |
| COc1cc(/C=C2\CCCN3CC(Cc4ccccc4)ON=C23)ccc1-n1cnc(C)c1 (racemic) | 241 | 83 | – |
| COc1cc(/C=C2\CCCN3CC(c4nccn4C)ON=C23)ccc1-n1cnc(C)c1 (racemic) | 3 | 6700 | – |
| COc1cc(/C=C2\CCCN3C2=NOC3(C)c2ccc(F)cc2)ccc1-n1cnc(C)c1 (stereo not drawn) | 237 | 58 | – |
| COc1cc(/C=C2\O[C@H](C)CN3C2=NOC[C@@H]3c2cc(F)cc(F)c2)ccc1-n1cnc(C)c1 | 1220 | 16 | – |
| COc1cc(/C=C2\CCCN3C2=NOC[C@@H]3Cc2ccccc2)ccc1-n1cnc(C)c1 | 238 | 80 | – |
| COc1cc(/C=C2\CCCN3CC(COc4ccccc4)ON=C23)ccc1-n1cnc(C)c1 (racemic) | 147 | 140 | – |
| COc1cc(/C=C2\O[C@@H](C)CN3C2=NOC[C@@H]3c2cc(F)cc(F)c2)ccc1-n1cnc(C)c1 | 550 | 35 | – |
| COc1cc(/C=C2\CCCN3C[C@H](c4cc(F)c(F)c(F)c4)ON=C23)ccc1-n1cnc(C)c1 | 328 | 48 | inhibition at 10 µM (hERG (KCNH2)): 83%; inhibition in vivo at 10 mg/kg (Rattus norvegicus [7]): 45%; Activity [17]: Not Active; concentration at 6 h [10]: 1880 ng/g; Kp at 6 h [11]: 1; AUC(0-t) at 6 h [13]: 24.3 µM·h; inhibition (INH) [18]: Not Active |
| COc1cc(/C=C2\CCCN3C2=NOC[C@@H]3c2ccc(F)cc2)ccc1-n1cnc(C)c1 | 385 | 37 | inhibition in vivo at 10 mg/kg (Rattus norvegicus [7]): 53%; concentration at 3 h [9]: 6.7 µM; concentration at 6 h [10]: 2850 ng/g; Kp at 6 h [11]: 0.8; AUC(0-t) at 6 h [13]: 86.5 µM·h; concentration at 3 h [16]: 7.7 µM |
| COc1cc(/C=C2\CCCN3C2=NOC[C@@H]3CNC(=O)c2cccc(Cl)c2)ccc1-n1cnc(C)c1 | 24 | 820 | – |
| COc1cc(/C=C2\O[C@H](C)CN3C2=NOC[C@@H]3c2cc(F)c(F)c(F)c2)ccc1-n1cnc(C)c1 | 1170 | 11 | inhibition in vivo at 10 mg/kg (Rattus norvegicus [7]): 60% |
| COc1cc(/C=C2\CCCN3CCON=C23)ccc1-n1cnc(C)c1 | 7 | 3100 | – |
| COc1cc(/C=C2\CCCN3CC(CO)ON=C23)ccc1-n1cnc(C)c1 (racemic) | 4 | 5400 | – |
| COc1cc(/C=C2\CCCN3C2=NOC[C@@H]3C2CCOCC2)ccc1-n1cnc(C)c1 | 11 | 1900 | – |

Further molecules by falling IC50 (Gamma-secretase), results first:

| Ratio [1] | IC50 (Gamma-secretase) [nM] | SMILES | further results |
| --- | --- | --- | --- |
| 2 | 13300 | COc1cc(/C=C2\CCCN3C2=NOCC3(CO)c2ccc(F)cc2)ccc1-n1cnc(C)c1 (racemic) | – |
| 2 | 9000 | COc1cc(/C=C2\CCCN3CC(c4cnccn4)ON=C23)ccc1-n1cnc(C)c1 (racemic) | – |
| 8 | 2500 | COc1cc(/C=C2\CCCN3C(=O)CON=C23)ccc1-n1cnc(C)c1 | – |
| 50 | 400 | COc1cc(/C=C2\CCCN3C2=NOCC32CCOc3ccc(F)cc32)ccc1-n1cnc(C)c1 (racemic) | – |
| 49 | 300 | COc1cc(/C=C2\CCCN3C2=NOCC3C(O)c2ccc(Cl)cc2)ccc1-n1cnc(C)c1 (stereo not drawn) | – |
| 91 | 210 | COc1cc(/C=C2\CCCN3CC(c4ccccc4)ON=C23)ccc1-n1cnc(C)c1 (racemic) | – |
| 158 | 130 | COc1cc(/C=C2\CCCN3CC(c4cccc5ccccc45)ON=C23)ccc1-n1cnc(C)c1 (racemic) | – |
| 120 | 100 | COc1cc(/C=C2\CCCN3C2=NOC[C@@H]3COCc2ccccc2)ccc1-n1cnc(C)c1 | – |
| 265 | 76 | COc1cc(/C=C2\CCCN3CC(C(O)c4cc(F)cc(F)c4)ON=C23)ccc1-n1cnc(C)c1 (racemic) | – |
| 149 | 73 | COc1cc(/C=C2\CCCN3C2=NOC[C@@H]3CC(C)C)ccc1-n1cnc(C)c1 | – |
| 223 | 58 | COc1cc(/C=C2\CCCN3C2=NOC32CCOc3ccc(F)cc32)ccc1-n1cnc(C)c1 (stereo not drawn) | – |
| 507 | 39 | COc1cc(/C=C2\CCCN3C2=NOC[C@@H]3c2cc(F)cc(Cl)c2)ccc1-n1cnc(C)c1 | inhibition in vivo at 10 mg/kg (Rattus norvegicus [7]): 62%; concentration at 3 h [9]: 7.2 µM; concentration at 6 h [10]: 1340 ng/g; Kp at 6 h [11]: 1.1; AUC(0-t) at 6 h [13]: 24.6 µM·h |
| 607 | 33 | COc1cc(/C=C2\CCCN3C2=NOC[C@@H]3c2cc(F)c(F)c(F)c2)ccc1-n1cnc(C)c1 | inhibition at 10 µM (hERG (KCNH2)): 76%; Activity [2]: inactive; Activity (Rattus norvegicus [3]): Non-toxic; bioavailability [4]: 100%; half-life [5]: 3.5 h; permeability (Caco-2): permeable; Activity [6]: inactive; inhibition in vivo at 10 mg/kg (Rattus norvegicus [7]): 62%; Vd [8]: 0.4 L/kg; concentration at 3 h [9]: 10.7 µM; concentration at 6 h [10]: 2910 ng/g; Kp at 6 h [11]: 0.4; inhibition (Rattus norvegicus [12]): Dose-dependent effect; Activity (Canis familiaris): Non-toxic; AUC(0-t) at 6 h [13]: 87.4 µM·h; Activity (Rattus norvegicus [14]): Non-toxic; clearance [15]: 1.4 mL/min/kg |
